Assay results: patent publication US4439365A, “Novel hydroxy substituted prostanoic acids, esters, congeners, intermediates and process” (American Cyanamid Company, priority 1979, dated 1984)

Key:
[1] = system: ulcerogenic properties of indomethacin; test: Protection against indomethacin-induced ulcers in rats; type: in vivo; details: indomethacin 20 mg./kg. s.c.
Method: The compounds of this invention provide protection against the ulcerogenic properties of indomethacin. This assay was carried out in the following manner.
Rats were starved for 48 hours (water was given ad libitum). Indomethacin (20 mg./kg. of body weight) was administered by the subutaneous route and one-half the dose of the test compound was administered by gavage at the same time. After three hours, the second half of the test compound was administered also by Gavage. Five hours after the administration of indomethacin the animals were decapitated and the stomachs removed. The stomachs were washed with distilled water, blotted on gauze, cut along the larger curvature, and the contents rinsed with distilled water. The stomachs were spread out, pinned on a cork and visualized under magnifying glass for ulcers. The criteria for scoring of ulcers was as previously reported. [Abdel-Galil et al. Brit. J. Pharmac. Chemotherapy 33:1-14 (1968)]. […]
Control animals treated with indomethacin but not test compound consistently give scores of about 3.0-3.5. Control animals treated with neither indomethacin nor test compound give scores of about 0.5-0.8. Compounds producing a score of 2.5 or lower are considered to be active.

gastric acid secretion = test: Gastric acid secretion inhibition, modified Shay rat procedure; type: in vivo, rats (male, CFE strain); details: pylorus-ligated rats, intraduodenal dose 100 mg./kg., 3 hours, 20% or more active, read-out: Percent Inhibition of gastric acid secretion
Method: The novel compounds of the present invention are also effective inhibitors of gastric acid secretion and of ulcer development in experimental animals, and thus are potentially valuable as agents for the control of gastric acid secretion and of gastric erosion and as anti-ulcer agents. Gastric acid secretion inhibitory action is usually measured by the "Shay rat" procedure^(1,2) with some modifications as follows.
The rats (male, CFE strain), were starved for 48 hours (water was given ad libitum) to permit evacuation of stomach contents. On the morning of the experiment, under ether anesthesia, the abdominal region was shaved and a midline incision (1-11/2") was made with a scapel. […]
The abdominal cavity was exposed by cutting with scissors and the esophagus close to the stomach was clamped off with a hemostat, the stomach was removed by cutting above the hemostat (the esophagus was cut) and between the two sutures. […] The supernatant was collected, volume measured and recorded, 2 drops of a phenolphthalein indicator (1% in 95% ethanol) were added and the solution was titrated with 0.02 N NaOH (or with 0.04 N NaOH when large volumes of stomach contents were encountered) to pH 8.4 (because of usual coloring of the stomach contents, phenolphthalein was only used to permit visual indication that the end point was near) and the amount of acid present was calculated. […]

[2] = total oral dose 25 mg./kg. in two halves by gavage, scale 0 normal stomach to 4 many ulcers, mainly large, 2.5 or lower active, control 3.2

SMILES: CCCCC[C@H](O)/C=C/[C@H]1CCC(=O)[C@@H]1CCCCSCC(=O)O (relative stereo) [9-oxo-3-thia-15-hydroxy-13-trans-prostenoic acid]
- Score Treated (ulcer score) [1, 2]: 1.8

SMILES: CCCCC[C@@H](O)/C=C/[C@H]1CCC(=O)[C@@H]1CCCCSCC(=O)O (relative stereo) [9-oxo-3-thin-15-epi-hydroxy-13-trans-prostenoic acid]
- Score Treated (ulcer score) [1, 2]: 2.3

SMILES: CCCCCC(O)/C=C/[C@H]1CCC(=O)[C@]1(C)CCCCCCC(=O)O (relative stereo) [9-oxo-8β-methyl-15-hydroxy-13-trans-prostenoic acid]
- Score Treated (ulcer score) ([1]; total oral dose 12.5 mg./kg. in two halves by gavage, scale 0-4, 2.5 or lower active, control 3.0): 2.0

SMILES: CCCCCC(O)/C=C/C1CCC(=O)C1CCCCCC(CC)C(=O)O (stereo not drawn) [9-oxo-15-hydroxy-2-ethyl-13-trans-prostenoic acid]
- Score Treated (ulcer score) ([1]; total oral dose 50 mg./kg. in two halves by gavage, scale 0-4, 2.5 or lower active, control 3.0): 2.2

SMILES: CCCCCC(O)/C=C/C1CCC(=O)C1CCCCC(C)(C)CC(=O)O (stereo not drawn) [9-oxo-15-hydroxy-3,3-dimethyl-13-trans-prostenoic acid]
- inhibition at 100 mg/kg (gastric acid secretion): 51%

SMILES: CCCCCC(O)/C=C\C1CCC(=O)C1CCCCCCC(=O)O (stereo not drawn) [9-oxo-15-hydroxy-13-cis-prostenoic acid]
- Score Treated (ulcer score) ([1]; total oral dose 100 mg./kg. in two halves by gavage, scale 0-4, 2.5 or lower active, control 3.0): 1.3

SMILES: CCCCC(CC)C(O)/C=C/C1CCC(=O)C1CCCCCCC(=O)O (stereo not drawn) [9-oxo-15-hydroxy-16-ethyl-13-trans-prostenoic acid]
- Score Treated (ulcer score) [1, 2]: 1.7
